According to patent US8263649B2, “Benzofuran type derivatives, a composition comprising the same for treating or preventing cognitive dysfunction and the use thereof” (Medifron DBT Co., Ltd., priority 2006, dated 2012):

Key:
beta amyloid 1-42 = molecular target: T1, beta amyloid 1-42 (Homo sapiens, UniProt P05067); test: Inhibition test of beta amyloid aggregation (Thioflavin T fluorescence); type: biochemical; details: FIG. 1
T1 construct: Synthetic beta amyloid 1-42 (BACHEM); purchased BACHEM; host or cells: synthetic peptide
T1 sequence (P05067 672-713): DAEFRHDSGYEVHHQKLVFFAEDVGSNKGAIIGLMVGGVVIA
Protocol: Synthetic beta amyloid 1-42 (BACHEM) was dissolved in DMSO in order to 250 μm solution and diluted with PBS into 1/10 on fluorescent black plate to induce aggregation. By comparing with inhibition activity of the tanshinone compounds prepared in Example 1 on beta amyloid aggregation, the test sample showing more than 50% inhibition activity at 10 μg/ml was chosen to use and added to react for 1 hour at room temperature. ThT (Thioflavin T) was diluted with 50 mM glycine buffer solution and the diluted solution was added to each well by 150 μl/well. The absorbance was determined by microplate reader (SAFIRE, TECAN) at 450 nm excitation wavelength/480 nm emission wavelength and the inhibition activity of the test sample on beta amyloid aggregation was transformed into IC50.

[1] = system: HT22 mouse neuronal cell line treated with aggregated beta amyloid 25-35; test: Inhibition test of beta amyloid toxicity (MTT); type: cell-based; details: HT22 cells, 25 μm aggregated beta amyloid 25-35, 18 hours
Protocol: To determine the inhibitory activity of the compounds prepared in Examples on beta-amyloid toxicity, following test was performed according to the procedure disclosed in the literature (Gillardon, F. et al., Brain Research, 706(1), pp. 169-172, 1996).
HT22 mouse neuronal cell line was incubated in DMEM (Dulbecco's Modified Eagle's Medium, Gibco-BRL) medium supplemented with 10% FBS (Fetal Bovine Serum, Hyclone) and 1% penicillin/streptomycin (Sigma Co.). Prior to test, HT22 cell was incubated on 96 well plates with a density of 5×10^3 cell/well and further incubated in serum free DMEM medium for 1 hour before the treatment of test sample. Various concentration of compounds prepared in Examples used as a test sample was added thereto and incubated for 1 hour. Aggregated beta amyloid 25-35 (US peptide) was treated thereto to the concentration of 25 μm and incubated for 18 hours to induce cell necrosis. 5 mg/ml of MTT (3-(4,5-dimethyl-2-thiazolyl)-2,5-diphenyl-2H-tetrazolium bromide) solution was added each well with 15 μl/well and the well was incubated for 4 hours. Dissolving buffer solution (10% SDS, 50% dimethyl formamide, pH 4.7) was added to each well with 100 μl/well and reacted for overnight. 18 hours after the reaction, the absorbance of solution was determined by microplate reader (SAFIRE, TECAN) at 570 nm/630 nm wavelength (Gillardon, F. et al., Brain Research, 706(1) pp 169-172, 1996).

A 42 = test: ELISA of beta-amyloid in brain of transgenic mice (A 42); type: in vivo, mouse; details: APPswe mice treated for 4 months
Protocol: 13 months old dementia model male mice expressing APPswe was used in the experiment and the mice was divided into two groups, i.e., control group consisting of 2 mice and test groups consisting of 4 mice. Each mouse had been fed with the feed mixed with 3 mg of compound IIb everyday for 4 months.
At the end of behavior test, the brain of mouse was delivered and the left hemisphere was frozen to be used as a cryo-section material. The remaining right hemisphere was used to measure the formation of beta-amyloid according to the procedure disclosed in the literature (J. Neurosci, 21(12), pp 4183-4187, 2001). […]
The amount of beta-amyloid in the brains of mice was determined by […] ELISA method according to the manual provided from Biosource Co and ELISA kit (KHB 3482, Biosource Co.) was used in the experiment. […] The level of color reaction was determined at 450 nm using by spectrophotometer and the absolute amount of beta-amyloid in the samples was transformed by comparing with standard value. The brain of the mice treated with the compound 18b for 4 months was delivered and the amount of beta-amyloid in supernatant obtained from the dissolved brain tissue was determined according to ELISA method.

beta amyloid plaque = test: Congo Red staining of beta amyloid plaque in brain sections of transgenic mice; type: in vivo, mouse; details: FIG. 14

SMILES: COCCCc1ccc2oc(-c3ccc(OC)c(OC)c3)cc2c1 [Compound 18b, 2-(3,4-dimethoxy-phenyl)-5-(3-methoxy-propyl)-benzofuran]
- inhibitory effect on the aggregation of beta amyloid (beta amyloid 1-42): most potent inhibitory effect
- inhibition effect on beta-amyloid toxicity [1]: potent inhibition effect
- change of the amount of A 42 in brain (ELISA) (A 42): no difference
- numbers, size, and area of plaque in brain (beta amyloid plaque): significantly reduced
